These results are taken from paper PMC11021760, “Quantum-assisted fragment-based automated structure generator (QFASG) for small molecule design: an in vitro study” (Frontiers in Chemistry, 2024).

Common to all, as to type: biochemical
One test has as its target T1, CaMKK2 (h) (Homo sapiens, UniProt Q96RR4).
T1 construct: purchased DiscoverX/Eurofins
Put plainly: CAMKK2 kinase activity assay (DiscoverX/Eurofins, radiometric [gamma-33P]-ATP). The following applies: ATP concentration of 10 µM. As for the experimental part:
The assay is available as a product of DiscoverX/Eurofins. CaMKK2 (h) was incubated with 20 mM Tris/HCl pH 8.5, 0.2 mM EDTA, 0.5% BSA, 0.5 mM CaCl2, 0.016 mg/mL calmodulin, 150 µM […], 10 mM MgAcetate and [gamma-33P]-ATP (specific activity and concentration of 10 µM). The reaction was initiated by the addition of the Mg/ATP mix. After incubation for 40 min 13 at room temperature, the reaction was stopped by the addition of phosphoric acid to a concentration of 0.5%. An aliquot of the reaction was then spotted onto a filter and washed four times for 4 min in 0.425% phosphoric acid and once in methanol prior to drying and scintillation counting.

The target in another test is T2, ATM (h) (Homo sapiens, UniProt Q13315).
T2 construct: purchased DiscoverX/Eurofins
T2 sequence (Q13315 whole entry): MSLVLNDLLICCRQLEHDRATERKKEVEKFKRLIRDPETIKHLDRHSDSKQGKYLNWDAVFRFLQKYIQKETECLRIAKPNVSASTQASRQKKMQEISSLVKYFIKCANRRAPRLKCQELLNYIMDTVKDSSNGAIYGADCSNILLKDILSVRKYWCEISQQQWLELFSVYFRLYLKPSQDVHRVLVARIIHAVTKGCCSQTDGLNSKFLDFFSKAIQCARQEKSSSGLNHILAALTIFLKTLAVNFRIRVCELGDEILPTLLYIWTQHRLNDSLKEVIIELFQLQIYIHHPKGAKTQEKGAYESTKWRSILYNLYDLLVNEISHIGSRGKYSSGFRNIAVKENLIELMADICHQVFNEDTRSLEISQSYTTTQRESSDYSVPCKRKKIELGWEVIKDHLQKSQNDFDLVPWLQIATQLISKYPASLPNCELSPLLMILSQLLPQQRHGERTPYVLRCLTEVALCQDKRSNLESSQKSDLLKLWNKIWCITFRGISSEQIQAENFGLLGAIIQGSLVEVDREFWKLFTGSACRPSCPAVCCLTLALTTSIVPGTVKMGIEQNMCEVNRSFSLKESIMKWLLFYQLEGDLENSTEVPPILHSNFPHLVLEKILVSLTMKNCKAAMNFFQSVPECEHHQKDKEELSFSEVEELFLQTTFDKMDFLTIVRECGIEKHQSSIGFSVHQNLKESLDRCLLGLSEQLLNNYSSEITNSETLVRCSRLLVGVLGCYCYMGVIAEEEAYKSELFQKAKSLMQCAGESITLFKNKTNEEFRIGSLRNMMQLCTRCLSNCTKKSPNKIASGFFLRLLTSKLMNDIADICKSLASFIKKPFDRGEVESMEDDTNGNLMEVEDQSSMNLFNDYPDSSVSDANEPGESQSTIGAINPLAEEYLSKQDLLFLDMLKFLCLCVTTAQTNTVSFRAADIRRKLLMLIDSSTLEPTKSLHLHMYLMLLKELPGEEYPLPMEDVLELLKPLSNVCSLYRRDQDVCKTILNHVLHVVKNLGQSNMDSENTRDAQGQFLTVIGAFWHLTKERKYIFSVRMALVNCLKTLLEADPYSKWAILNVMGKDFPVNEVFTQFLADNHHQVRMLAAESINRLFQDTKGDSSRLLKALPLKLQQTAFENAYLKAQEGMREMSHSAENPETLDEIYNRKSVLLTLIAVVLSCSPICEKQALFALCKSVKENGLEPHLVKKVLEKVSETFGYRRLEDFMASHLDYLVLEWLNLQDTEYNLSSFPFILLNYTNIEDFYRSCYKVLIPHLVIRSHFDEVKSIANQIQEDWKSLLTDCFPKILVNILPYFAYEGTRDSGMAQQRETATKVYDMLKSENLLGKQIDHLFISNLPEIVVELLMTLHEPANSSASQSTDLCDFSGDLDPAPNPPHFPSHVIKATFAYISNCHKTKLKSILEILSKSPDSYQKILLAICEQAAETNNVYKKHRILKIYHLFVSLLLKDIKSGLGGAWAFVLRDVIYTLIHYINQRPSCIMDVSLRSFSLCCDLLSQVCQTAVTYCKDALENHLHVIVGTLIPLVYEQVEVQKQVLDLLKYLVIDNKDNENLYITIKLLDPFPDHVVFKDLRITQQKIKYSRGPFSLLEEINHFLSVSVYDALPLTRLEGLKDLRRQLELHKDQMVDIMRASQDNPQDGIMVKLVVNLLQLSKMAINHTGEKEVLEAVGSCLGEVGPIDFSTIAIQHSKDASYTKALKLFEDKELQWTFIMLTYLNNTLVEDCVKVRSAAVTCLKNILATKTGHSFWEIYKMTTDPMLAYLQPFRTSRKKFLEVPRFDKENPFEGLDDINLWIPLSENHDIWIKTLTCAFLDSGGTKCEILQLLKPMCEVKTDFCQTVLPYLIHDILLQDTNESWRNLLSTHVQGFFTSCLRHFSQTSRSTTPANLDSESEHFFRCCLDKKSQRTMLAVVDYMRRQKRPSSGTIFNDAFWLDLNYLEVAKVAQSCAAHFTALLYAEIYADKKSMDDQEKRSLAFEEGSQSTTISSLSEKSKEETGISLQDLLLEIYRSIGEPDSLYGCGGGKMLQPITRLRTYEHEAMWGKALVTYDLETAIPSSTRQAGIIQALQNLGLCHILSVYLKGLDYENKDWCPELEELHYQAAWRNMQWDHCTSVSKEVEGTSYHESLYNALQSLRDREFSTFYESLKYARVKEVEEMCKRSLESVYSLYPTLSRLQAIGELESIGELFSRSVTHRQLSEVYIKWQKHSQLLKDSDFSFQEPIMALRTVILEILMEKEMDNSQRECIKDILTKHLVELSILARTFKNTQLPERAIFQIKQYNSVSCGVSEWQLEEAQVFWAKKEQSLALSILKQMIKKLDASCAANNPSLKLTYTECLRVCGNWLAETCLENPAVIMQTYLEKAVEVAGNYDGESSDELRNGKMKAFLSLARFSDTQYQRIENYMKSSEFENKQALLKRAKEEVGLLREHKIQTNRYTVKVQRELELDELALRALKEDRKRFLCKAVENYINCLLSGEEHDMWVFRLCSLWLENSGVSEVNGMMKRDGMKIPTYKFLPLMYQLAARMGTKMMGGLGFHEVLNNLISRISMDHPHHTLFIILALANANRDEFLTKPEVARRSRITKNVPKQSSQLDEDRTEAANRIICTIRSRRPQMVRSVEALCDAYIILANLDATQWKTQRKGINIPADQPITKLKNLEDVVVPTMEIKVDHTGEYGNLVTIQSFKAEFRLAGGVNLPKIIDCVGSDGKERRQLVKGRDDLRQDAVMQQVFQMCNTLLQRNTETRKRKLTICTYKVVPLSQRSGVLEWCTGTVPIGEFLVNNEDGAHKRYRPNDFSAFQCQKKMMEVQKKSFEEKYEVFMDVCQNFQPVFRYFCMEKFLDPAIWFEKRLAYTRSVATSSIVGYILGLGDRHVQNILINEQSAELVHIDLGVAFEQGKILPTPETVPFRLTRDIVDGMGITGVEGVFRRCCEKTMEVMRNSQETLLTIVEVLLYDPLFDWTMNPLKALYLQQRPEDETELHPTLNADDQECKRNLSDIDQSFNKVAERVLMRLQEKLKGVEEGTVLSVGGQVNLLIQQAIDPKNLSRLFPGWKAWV
Put plainly: ATM kinase activity assay (DiscoverX/Eurofins, HTRF). The conditions noted are these: ATP 10 µM; for remaining activity at 10 µM: compound at 10 μM, read-out: ATM residual activity at 10μM. As to the method:
(§1) The assay is available as a product of DiscoverX/Eurofins. ATM (h) was incubated in assay buffer containing 30 nM GST-cMyc-p53 and Mg/ATP (concentration of 10 µM). The reaction is initiated by the addition of the Mg/ATP mix. After incubation for 30 min at room temperature, the reaction was stopped by the addition of stop solution containing EDTA. Finally, detection buffer was added, which contained a d2-labelled anti-GST monoclonal antibody and a europium-labelled anti-phospho Ser15 antibody against phosphorylated p53. The plate was then read in time-resolved fluorescence mode, and the homogeneous time-resolved fluorescence (HTRF) signal is determined according to the formula HTRF = 10000 x (Em665 nm/Em620 nm).
For orientation: Time-resolved FRET reads energy transfer from a long-lived donor to a nearby acceptor.

A further test concerns the target T3, DNA-PK (h) (Homo sapiens, UniProt P78527).
T3 construct: purchased DiscoverX/Eurofins
Put plainly: DNA-PK kinase activity assay (DiscoverX/Eurofins, HTRF). The following applies: ATP 10 µM. As to the method: as §1, with “DiscoverX/Eurofins. DNA-PK” for “DiscoverX/Eurofins. ATM”, “containing 50” for “containing 30”, “plate is” for “plate was”, “= 10,000 ×” for “= 10000 x”

The next test addresses T4, ATR/ATRIP (h) (Homo sapiens, UniProt Q13535).
T4 construct: purchased DiscoverX/Eurofins
The experiment in a line: ATR kinase activity assay (DiscoverX/Eurofins, HTRF). The following applies: ATP 10 µM. As for the experimental part:
as §1, with “DiscoverX/Eurofins. ATR/ATRIP” for “DiscoverX/Eurofins. ATM”, “containing 50” for “containing 30”, “reaction was” for “reaction is”, “plate is” for “plate was”, “signal was” for “signal is”, “= 10,000 ×” for “= 10000 x”

Structures are written as SMILES.

On to `CC(=O)c1cn(-c2ccn3ncc(-c4cccc(C(=O)C5CNC5)c4)c3n2)cn1` [QFASG-1], for which, on CaMKK2 (h), the IC50 (usually the concentration at which inhibition is half-maximal) is above 10 µM.

As to `CC(=O)c1ccc(-c2cnn3ccc(C(N)=O)nc23)cc1` [QFASG-2], at CaMKK2 (h), the IC50 is 3 µM and the “hill slope (CAMKK2 dose-response)” value was −0.85.

As for `CNC(=O)Nc1ccc(-c2ccn3ncc(-c4c[nH]c(C#N)n4)c3n2)cc1` [QFASG-3], on CaMKK2 (h), the IC50 stood at 6 µM and the “hill slope (CAMKK2 dose-response)” value was −1.05.

Take `Cc1cc(N(C)c2ccc3ncc(NCC(=O)O)cc3c2)n(C2CC2)n1` [QFASG-4]: the remaining activity at 10 µM at ATM (h) is 98%.

As for `Cn1cc(-c2ccc3ncc(NC(=O)Nc4cccc(F)c4F)cc3c2)cn1` [QFASG-5], at ATM (h), the remaining activity at 10 µM stood at 71%.

Take `N#Cc1ccc2ncc(NC(=O)Nc3cccnc3)cc2c1` [QFASG-6, 1-(6-cyanoquinolin-3-yl)-3-(pyridin-3-yl) urea]: on ATM (h), the IC50 amounted to 4 µM, the “hill slope (ATM dose-response)” value is on record as −1.1 and the remaining activity at 10 µM amounted to 31%. Moreover, at DNA-PK (h), the IC50 was 8 µM and the “hill slope (DNA-PK dose-response)” value is −0.85. On ATR/ATRIP (h), the “ATR inhibition (in words)” value is listed as “no ATR inhibition was observed” and the IC50 is above 10 µM.
